# Results as given in patent US20260174875A1 (Novo Nordisk A/S, priority 2023, published 2026).
# Read-outs that look alike come from different tables or passages of the source. Numbered stars: 1 amine (or outer) side, 2 acyl side, 3 side chain; on linkers, the order of the positions; unused ones are H or OH. Square brackets hold non-standard residues; d marks the D form. Side chains are listed from the residue outwards. * marks the point of attachment. C20 diacid = O=C(O)CCCCCCCCCCCCCCCCCCC(=O)*; C18 diacid = O=C(O)CCCCCCCCCCCCCCCCC(=O)*; C16 diacid = O=C(O)CCCCCCCCCCCCCCC(=O)*; γGlu = O=C(O)[C@H](CCC(=O)[*:2])N[*:1]; AEEA = NCCOCCOCC(=O)O; Aib = CC(C)(N)C(=O)O
# Assays:
# Assay type in all cases: cell-based
# [1] = biological target: T1, human GLP-1 receptor (hGLP-1R) (Homo sapiens, UniProt P43220); assay: GLP-1 receptor assay, method A (CRE-luciferase reporter, BHK cells)
# T1 construct: expressed in transfected cells
# T1 sequence (P43220 24-463): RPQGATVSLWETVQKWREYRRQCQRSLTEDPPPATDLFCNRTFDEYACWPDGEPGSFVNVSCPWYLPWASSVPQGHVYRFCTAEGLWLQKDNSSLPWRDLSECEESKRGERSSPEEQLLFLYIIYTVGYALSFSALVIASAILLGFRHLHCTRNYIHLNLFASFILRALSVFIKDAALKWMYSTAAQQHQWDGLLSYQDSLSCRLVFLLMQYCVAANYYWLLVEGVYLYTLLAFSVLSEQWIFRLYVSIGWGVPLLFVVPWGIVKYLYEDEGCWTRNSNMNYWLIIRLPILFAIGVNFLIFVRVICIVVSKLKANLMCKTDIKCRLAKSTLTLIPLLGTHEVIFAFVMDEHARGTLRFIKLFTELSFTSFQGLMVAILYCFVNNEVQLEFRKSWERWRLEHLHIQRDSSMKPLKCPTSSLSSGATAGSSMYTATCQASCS
# Experimental: (§1) To assess how the activation of the receptors is potentially influenced by the presence of human serum albumin (HSA), the in vitro assays were performed in the absence of HSA and presence of 1% (w/v) HSA.
# Cells at approximately 80-90% confluence were washed once in PBS (Gibco 14190-094) and loosened from the cell flasks with Versene (Gibco, 15040-033). […] Cells were aliquoted and stored at −180° C. until use.
# (§2) The assay buffer consisted of DMEM without phenol red (Gibco, 11880-028) supplemented with 1× GlutaMAX (Gibco, 35050-038), 10 mM HEPES (Gibco, 15630-056), 1% (w/v) ovalbumin (Sigma, A5503) and 0.1% (v/v) Pluronic F-68 (Gibco, 24040-032) either with HSA or without HSA (Sigma, A9511).
# Frozen stocks of hGLP-1R BHK CRE-Luc cells were thawed in a 37° C. water bath, washed once in PBS (Gibco 14190-094) and diluted to 1.5×10^6 (1.5E+6) cells/mL in assay buffer with or without 2% (w/v) HSA (Sigma, A9511). […] The assay plates were incubated for 3 hours at 37° C. in 5% CO2, left at room temperature for 5 minutes after which 100 μL steadylite Plus™ (PerkinElmer/Revvity, 6066759) was added to each well. Plates were sealed and incubated at room temperature with gentle shaking for 30 minutes while protected from light. Luminescence was detected on a luminescence plate reader e.g., a Synergy 2 (BioTek).
# [2] = biological target: T2, human GIP receptor (hGIPR) (Homo sapiens, UniProt P48546); assay: GIP receptor assay, method A (CRE-luciferase reporter, BHK cells)
# T2 construct: expressed in transfected cells
# T2 sequence (P48546 22-466): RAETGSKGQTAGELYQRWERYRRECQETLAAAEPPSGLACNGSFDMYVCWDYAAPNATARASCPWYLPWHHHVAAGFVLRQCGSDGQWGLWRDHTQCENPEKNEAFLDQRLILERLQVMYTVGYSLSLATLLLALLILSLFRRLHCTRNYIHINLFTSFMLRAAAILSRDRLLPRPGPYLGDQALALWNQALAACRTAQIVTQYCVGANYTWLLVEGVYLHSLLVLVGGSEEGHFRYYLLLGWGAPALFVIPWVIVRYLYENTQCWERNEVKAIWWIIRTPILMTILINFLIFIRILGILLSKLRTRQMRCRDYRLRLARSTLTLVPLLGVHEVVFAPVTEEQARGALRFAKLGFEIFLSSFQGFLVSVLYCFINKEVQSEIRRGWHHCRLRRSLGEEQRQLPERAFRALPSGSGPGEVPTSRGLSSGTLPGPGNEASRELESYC
# Experimental: To assess how the activation of the receptors is potentially influenced by the presence of human serum albumin (HSA), the in vitro assays were performed in the absence of HSA and presence of 1% (w/v) HSA. Unless stated otherwise the reference to the “GIP receptor assay as described in Example 4” throughout the specification shall refer to the described herein assay procedure method A (hGIPR assay) in the absence of HSA.
# Activation of the human GIP receptor leads to increased intra-cellular concentrations of cyclic AMP (cAMP) and the consequent transcription activation from promoters containing multiple copies of the cAMP response element (CRE). It is thus possible to measure GIP receptor activity using a CRE-luciferase reporter gene introduced into Baby Hamster Kidney (BHK) cells co-expressing the human GIP receptor.
# Cells at about 80-90% confluency were washed once with PBS (Gibco 14190-094) and detached from the cell flasks with Versene (Gibco, 15040-066). After centrifugation, the cells were counted, resuspended and diluted to approximately 1.5-3.0×10^6 (1.5E+6 to 3.0E+6) cells/mL in Recovery Cell Culture Freezing Medium (Gibco, 12648-010) and stored at −180° C. in suitable aliquots until use.
# as §2
# On the day before the assay hGIPR BHK Cre-Luc cells were thawed and plated out in 96 well Culture Plates (PerkinElmer/Revvity, 6005680) at 5.0×10^3 (5.0E+3) cells/well in growth medium as described above. The plates were then incubated for 21-23 hours at 37° C. with 5% CO2. On the day of the assay GLP-1-/GIP-/amylin-receptor tri-agonists or reference compounds were diluted in assay buffer using a 7-point, 10-fold titration plus a blank (absence of compound). Each compound was diluted and tested in duplicates in each experiment. In the plates containing the cells the growth medium was removed, and cells were washed twice with 100 μL PBS (Gibco 14190-094). 50 μL of the test compound dilutions were added to the plates containing cells preceded by 50 μL assay buffer with or without 2% (w/v) HSA (Sigma, A9511). The cell plates were incubated for 3 hours in a 5% CO2 incubator at 37° C. The plates were then transferred to room temperature followed by addition of 100 μL steadylite Plus™ (PerkinElmer/Revvity, 6066759). The plates were sealed and shaken for 30 minutes at room temperature while protected from light. Finally, luminescence (as an indicator of receptor activation) was measured on a Mithras reader (Berthold Technologies, DE). The EC50-values [pM] were calculated by non-linear curve fitting applying a four-parameter logistic model (Hill slope=“shared value for all datasets”) using GraphPad Prism (GraphPad Software, Boston, MA, USA).
# [3] = biological target: T3, human amylin receptor (hAMYR3) (Homo sapiens, UniProt O60896+P30988); assay: Amylin receptor assay, method A (CRE-luciferase reporter, BHK cells)
# T3 construct: host or cells: BHK cells (Hollex-1 line expressing hCTR(a) and CRE-Luc), further transfected with human RAMP3
# T3 sequence (P30988 25-474): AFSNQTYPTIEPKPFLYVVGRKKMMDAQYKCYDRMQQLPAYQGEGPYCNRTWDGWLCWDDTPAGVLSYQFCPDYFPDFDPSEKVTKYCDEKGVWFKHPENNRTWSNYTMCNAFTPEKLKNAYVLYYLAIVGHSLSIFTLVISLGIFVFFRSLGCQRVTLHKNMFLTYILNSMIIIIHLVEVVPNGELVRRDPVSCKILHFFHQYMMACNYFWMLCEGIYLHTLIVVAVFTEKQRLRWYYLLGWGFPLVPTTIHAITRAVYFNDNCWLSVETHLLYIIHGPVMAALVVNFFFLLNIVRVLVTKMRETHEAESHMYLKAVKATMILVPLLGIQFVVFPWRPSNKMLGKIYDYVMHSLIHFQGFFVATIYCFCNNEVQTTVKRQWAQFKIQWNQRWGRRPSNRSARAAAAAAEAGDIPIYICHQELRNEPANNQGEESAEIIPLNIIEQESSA
# T3 sequence (O60896 24-148): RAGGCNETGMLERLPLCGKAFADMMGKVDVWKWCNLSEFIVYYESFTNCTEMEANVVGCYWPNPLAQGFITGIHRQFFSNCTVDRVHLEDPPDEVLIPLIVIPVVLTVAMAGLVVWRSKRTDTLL
# Experimental: as §1
# It is thus possible to measure hAMYR3 activity using a CRE-luciferase reporter gene introduced into Baby Hamster Kidney (BHK) cells co-expressing the hAMYR3.
# The cell line was further transfected with human receptor modifying protein 3 (RAMP3) using standard methods.
# After centrifugation, the cell pellet was resuspended and diluted to approximately 2.5-4.0×10^6 (2.5E+6 to 4.0E+6) cells/mL in Recovery™ Cell Culture Freezing Medium (Gibco, 12648-010). Cells were aliquoted and stored at −180° C. until use.
# as §2, with “15630-056) and” for “15630-056),”, “either with or without” for “and”, “24040-032) and” for “24040-032)”, “with” for “with HSA”
# The plate was incubated over night at 37° C. in 5% CO2. […] Luminescence was detected on a luminescence plate reader e.g., a Synergy 2 (BioTek).
# [4] = hGLP-1R Potency, 1% HSA, EC50, method A, in the presence of 1% HSA
# [5] = method A, absence of HSA, read-out: hGLP-1R Potency, no HSA, EC50
# [6] = hGIPR Potency, 1% HSA, EC50, method A, in the presence of 1% HSA
# [7] = method A, absence of HSA, read-out: hGIPR Potency, no HSA, EC50
# [8] = hAMYR3 Potency, 1% HSA, EC50, method A, in the presence of 1% HSA
# [9] = method A, absence of HSA, read-out: hAMYR3 Potency, no HSA, EC50
Substance,"EC50 [1, 4] [pM]","EC50 [1, 5] [pM]","EC50 [2, 6] [pM]","EC50 [2, 7] [pM]","EC50 [3, 8] [pM]","EC50 [3, 9] [pM]","EC50 ([1]; hGLP-1R Potency, no HSA, EC50, method A, absence of HSA) [pM]","EC50 ([2]; hGIPR Potency, no HSA, EC50, method A, absence of HSA) [pM]","EC50 ([3]; hAMYR3 Potency, no HSA, EC50, method A, absence of HSA) [pM]"
Y[Aib]EGTFTSDYSILLEEQAAREFIEWLLAGGPSK([AEEA-AEEA-γGlu-C18 diacid])GGQEPGQEPGEASHLSTAQTQRLSAELHELATLPRTETGSGSP-NH2 [Compound 39],1930,23.7,352,1.62,140,5.75,,,
Y[Aib]EGTFTSDYSILLEEQAAREFIEWLLAGGPSSGALAQTLAQTLASHLSTAQTQRLSAELHK([AEEA-AEEA-γGlu-C16 diacid])LATLPRTETGSGSP-NH2 [Compound 59],39.7,50.6,27.2,7.72,24.2,3.85,,,
Y[Aib]EGTFTSDYSILLEEQAAREFIEWLLAGGPSK([AEEA-AEEA-γGlu-C18 diacid])GEASELSTAALGRLSAELHRLATLPRTETGSGSP-NH2 [Compound 19],,57.9,,9.44,,4.24,,,
Y[Aib]EGTFTSDYSILLEEQAAREFIEWLLAGGPSSGAGQAPGQAPGASHLSTAQTARLSAELHK([AEEA-AEEA-γGlu-C18 diacid])LATLPRTETGSGSP-NH2 [Compound 113],57.5,14.4,8.96,2.02,136,2.53,,,
Y[Aib]EGTFTSDYSILLEEQAAREFIEWLLAGGPSK([AEEA-AEEA-γGlu-C18 diacid])GEASELSTAQLGRLSAELHRLATLPRTETGSGSP-NH2 [Compound 27],,26.2,,2.11,,3.82,,,
Y[Aib]EGTFTSDYSILLEEQAAREFIEWLLAGGPSK([AEEA-AEEA-γGlu-C18 diacid])GAPPEASELSTAALGRLSAELHELATLPRTETGSGSP-NH2 [Compound 33],,32.1,,3.11,,10.3,,,
Y[Aib]EGTFTSDYSILLEEQAAREFIEWLLAGGPSSGALAQTLAQTLASHLSTAQTQRLSAELHK([AEEA-AEEA-γGlu-C20 diacid])LATLPRTETGSGSP-NH2 [Compound 60],173,94.4,28.3,6.06,191,3.85,,,
Y[Aib]EGTFTSDYSILLEEQAAREFIEWLLAGGPSK([AEEA-AEEA-γGlu-C18 diacid])GEASELSTAALARLSAELHRLATLPRTETGSGSP-NH2 [Compound 28],,96,,3.5,,2.28,,,
Y[Aib]EGTFTSDYSILLEEQAAREFIEWLLAGGPSSGAGQAPGQAPGASK([AEEA-AEEA-γGlu-C18 diacid])LSTAQTQRLSAELHRLATLPRTETGSGSP-NH2 [Compound 54],,,,,,,28.8,5.56,3.02
Y[Aib]EGTFTSDYSILLEEQAAREFIEWLLAGGPSGGEASHLSTAQTQRLSAELHK([AEEA-AEEA-γGlu-C18 diacid])LATLPRTETGSGSP-NH2 [Compound 74],141,29.8,18.7,2.51,134,2.73,,,
Y[Aib]EGTFTSDYSILLEEQAAREFIEWLLAGGPSK([AEEA-AEEA-γGlu-C16 diacid])GASELSTAALGRLSAELHRLATLPRTETGSGSP-NH2 [Compound 20],,40.6,,4.82,,3.65,,,

# Now from value to substance, other results behind:
"EC50 [1, 4] [pM]","EC50 [1, 5] [pM]","EC50 [2, 6] [pM]","EC50 [2, 7] [pM]","EC50 [3, 8] [pM]","EC50 [3, 9] [pM]",Substance,"EC50 ([1]; hGLP-1R Potency, no HSA, EC50, method A, absence of HSA) [pM]","EC50 ([2]; hGIPR Potency, no HSA, EC50, method A, absence of HSA) [pM]","EC50 ([3]; hAMYR3 Potency, no HSA, EC50, method A, absence of HSA) [pM]"
47,11,12.2,2.24,134,3.26,Y[Aib]EGTFTSDYSILLEEQAAREFIEWLLAGGPSSGAGQAPGQAPGASHLSTAQTQRLSAELHQLK([AEEA-AEEA-γGlu-C18 diacid])TLPRTETGSGSP-NH2 [Compound 102],,,
32.2,7.68,61.9,8.37,57.1,6.19,H[Aib]HGTFTSDYSILLEEQAAREFIEWLLAGGPSSGALAQTLAQTLASHLSTAQTQRLSAELHK([AEEA-AEEA-γGlu-C18 diacid])LATLPRTETGSGSP-NH2 [Compound 51],,,
,2.87,,4.27,,3.22,H[Aib]HGTFTSDYSILLEEQAAREFIEWLLAGGPSK([AEEA-AEEA-γGlu-C18 diacid])GEASELSTAALGRLSAELHRLATLPRTETGSGSP-NH2 [Compound 25],,,
,5.25,,2.39,,2.32,H[Aib]HGTFTSDYSILLEEQAAREFIEWLLAGGPSK([AEEA-AEEA-γGlu-C18 diacid])GEASQLSTAALGRLSAELHHLATLPRTETGSGSP-NH2 [Compound 66],,,
,6.37,,6.8,,2.28,H[Aib]HGTFTSDYSILLEEQAAREFIEWLLAGGPSK([AEEA-AEEA-γGlu-C18 diacid])GAPPPSGGGEASELSTAALGRLSAELHRLATLPRTETGSGSP-NH2 [Compound 30],,,
48.8,4.12,40.4,5.68,102,3.7,H[Aib]HGTFTSDYSILLEEQAAREFIEWLLAGGPSSGEASHLSTAALGRLSAELHK([AEEA-AEEA-γGlu-C18 diacid])LATLPRTETGSGSP-NH2 [Compound 88],,,
